Experimental data as given in ChEMBL document CHEMBL1201862, “PubChem BioAssay data set” (2004).
One block for each molecule: values may come before it. Active and inactive are the calls of the source.

Legend:
[1] = biological target: ADP-ribosylation factor GTPase-activating protein 1 (Rattus norvegicus, UniProt Q62848); assay: Fluorescence polarization-based biochemical high throughput dose response screening assay to identify inhibitors of ADP-ribosylation factor GTPase activating protein 1 (ARFGAP1).; assay type: functional
[2] = biological target: Arf-GAP with SH3 domain, ANK repeat and PH domain-containing protein 1 (Homo sapiens, UniProt Q9ULH1); assay type: functional;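 further: biochemical fluorescence polarization dose–response screen measuring inhibition of ASAP1; ASAP1 GAP domain stimulating GTP hydrolysis by truncated human ARF1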
cells [3] = assay type: functional, cell-based
cells [4] = assay type: functional, cell-based; remark: listed apart in the source
[5] = biological target: 26S proteasome non-ATPase regulatory subunit 14 (Homo sapiens, UniProt O00487); assay: inhibition of proteasome subunit RPN11 – biochemical, fluorescence polarization, uHTS hits, confirmation (AID 602368); assay type: functional
[6] = biological target: 72 kDa type IV collagenase (Homo sapiens, UniProt P08253); assay: Dose Response validation of uHTS RPN11 inhibitor hits using a MMP-2 Fluorescence assay.; assay type: functional
[7] = growth suppression of PTEN-null colon cells, dose response, cell-based, HCT116 PTEN knockout (AID 1047); assay type: functional;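 further: HCT116 colon tumor cells with PTEN knocked out; cells exposed to compound for 60 hours before readout; potency for loss of cell viability measured by luminescence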
[8] = growth suppression of beta-catenin-knockout colon cells, dose response, cell-based, HCT116, human colon tumor (AID 1045); assay type: functional;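 further: HCT116 colon tumor cells with beta catenin knocked out; cells exposed to compound for 60 hours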
Prothrombin = Prothrombin (Bos taurus, UniProt P00735); assay: thrombin inhibition, dose response, biochemical, fluorescence polarization, uHTS hits (AID 602369); assay type: functional
[9] = biological target: T1, Methionyl-tRNA synthetase, putative (Trypanosoma brucei brucei, UniProt Q38C91); assay type: functional, Trypanosoma brucei brucei strain 927/4 GUTat10.1
T1 sequence (Q38C91 whole entry): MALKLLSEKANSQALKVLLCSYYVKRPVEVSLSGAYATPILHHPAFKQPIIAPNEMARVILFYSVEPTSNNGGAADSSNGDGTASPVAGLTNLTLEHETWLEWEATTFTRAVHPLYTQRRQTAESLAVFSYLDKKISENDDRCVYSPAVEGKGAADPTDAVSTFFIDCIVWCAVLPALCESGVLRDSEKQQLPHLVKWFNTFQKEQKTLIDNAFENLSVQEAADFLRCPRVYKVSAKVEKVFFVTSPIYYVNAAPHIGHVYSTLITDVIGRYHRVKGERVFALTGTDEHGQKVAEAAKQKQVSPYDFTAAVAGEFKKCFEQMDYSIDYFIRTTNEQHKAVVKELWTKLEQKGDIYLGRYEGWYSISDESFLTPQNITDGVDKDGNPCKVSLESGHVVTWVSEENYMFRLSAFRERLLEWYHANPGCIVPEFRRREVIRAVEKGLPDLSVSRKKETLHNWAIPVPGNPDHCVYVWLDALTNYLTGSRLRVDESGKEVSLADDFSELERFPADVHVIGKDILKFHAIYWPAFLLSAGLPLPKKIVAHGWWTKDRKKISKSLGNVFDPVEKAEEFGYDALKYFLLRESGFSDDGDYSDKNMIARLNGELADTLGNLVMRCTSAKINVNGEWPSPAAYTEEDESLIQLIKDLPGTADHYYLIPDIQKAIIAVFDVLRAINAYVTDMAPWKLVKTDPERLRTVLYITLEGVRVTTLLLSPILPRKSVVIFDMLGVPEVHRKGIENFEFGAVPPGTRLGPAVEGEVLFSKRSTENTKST

HEK293 [10] = assay: NOD1 signaling inhibitors, primary screen, cell-based, luminescence, uHTS (AID 1578); assay type: functional; details: Homo sapiens
HEK293 [11] = assay: cells; assay type: functional, cell-based; details: Homo sapiens
[12] = biological target: T1, Methionyl-tRNA synthetase, putative; assay type: functional, Trypanosoma brucei brucei strain 927/4 GUTat10.1; remark: listed apart in the source
[13] = cytotoxicity toward NIH3T3 fibroblasts, dose response, counter-screen, cell-based, ATP luminescence, mouse fibroblasts (AID 2010); assay type: functional;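 further: cells exposed to compound for about 90 hours before reading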
[14] = inhibitors of intracellular T. cruzi replication, confirmation, NIH3T3 host cells, beta-gal luminescence (AID 2044); assay type: functional, cell-based;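 further: intracellular parasites grown in NIH/3T3 mouse fibroblasts as host cells; luminescent beta-galactosidase reporter signal from transgenic T. cruzi replicating inside host cells; inhibitors lower the luminescence signal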
HEK293 [15] = assay: cells; assay type: functional, cell-based; details: Homo sapiens; remark: listed apart in the source
[16] = Counterscreen for inhibitors of Trypanosoma brucei methionyl tRNA synthetase (MetRS): Luminescence-based cell-based high throughput dose response assay to identify compounds that are cytotoxic to Jurkat human T lymphocyte cells.; assay type: functional
HEK293 [17] = assay: NOD2 signaling inhibitors in MDP-stimulated cells, cell-based, uHTS, luminescence (AID 2001); assay type: functional; details: Homo sapiens
Beta-galactosidase = Beta-galactosidase (Escherichia coli, UniProt Q8VNN2); assay: Dose response counterscreen for EBI2 assay utilizing the enzyme, b-galactosidase.; assay type: functional
Chain of Beta-galactosidase (Q8VNN2 whole entry): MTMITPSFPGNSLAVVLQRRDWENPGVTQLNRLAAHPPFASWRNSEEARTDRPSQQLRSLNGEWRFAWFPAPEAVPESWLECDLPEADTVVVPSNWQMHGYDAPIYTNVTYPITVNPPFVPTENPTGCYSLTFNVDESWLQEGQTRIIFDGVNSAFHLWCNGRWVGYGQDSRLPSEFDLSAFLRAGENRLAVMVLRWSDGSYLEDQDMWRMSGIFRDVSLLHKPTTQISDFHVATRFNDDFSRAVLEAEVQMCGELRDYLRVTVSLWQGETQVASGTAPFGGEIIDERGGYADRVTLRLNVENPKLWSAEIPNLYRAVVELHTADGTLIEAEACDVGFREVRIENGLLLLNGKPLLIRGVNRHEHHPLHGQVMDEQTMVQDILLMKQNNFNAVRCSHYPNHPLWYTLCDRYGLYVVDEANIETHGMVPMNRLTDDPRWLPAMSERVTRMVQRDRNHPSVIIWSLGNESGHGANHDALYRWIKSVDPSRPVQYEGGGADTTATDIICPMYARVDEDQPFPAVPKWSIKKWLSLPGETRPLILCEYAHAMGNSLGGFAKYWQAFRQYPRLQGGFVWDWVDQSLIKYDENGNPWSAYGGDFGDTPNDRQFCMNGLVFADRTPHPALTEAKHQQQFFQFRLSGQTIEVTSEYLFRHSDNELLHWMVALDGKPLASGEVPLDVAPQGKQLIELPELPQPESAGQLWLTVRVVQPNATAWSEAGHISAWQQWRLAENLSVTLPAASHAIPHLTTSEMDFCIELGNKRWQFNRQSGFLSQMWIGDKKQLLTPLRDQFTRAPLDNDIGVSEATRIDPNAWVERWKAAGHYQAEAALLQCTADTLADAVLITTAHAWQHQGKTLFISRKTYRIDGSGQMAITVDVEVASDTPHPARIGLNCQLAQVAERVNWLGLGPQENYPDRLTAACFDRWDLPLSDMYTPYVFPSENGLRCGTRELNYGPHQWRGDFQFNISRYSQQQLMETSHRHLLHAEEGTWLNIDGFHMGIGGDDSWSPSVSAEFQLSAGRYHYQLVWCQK

Chain of Arf-GAP with SH3 domain, ANK repeat and PH domain-containing protein 1 (Q9ULH1 whole entry, the tested form may be a part): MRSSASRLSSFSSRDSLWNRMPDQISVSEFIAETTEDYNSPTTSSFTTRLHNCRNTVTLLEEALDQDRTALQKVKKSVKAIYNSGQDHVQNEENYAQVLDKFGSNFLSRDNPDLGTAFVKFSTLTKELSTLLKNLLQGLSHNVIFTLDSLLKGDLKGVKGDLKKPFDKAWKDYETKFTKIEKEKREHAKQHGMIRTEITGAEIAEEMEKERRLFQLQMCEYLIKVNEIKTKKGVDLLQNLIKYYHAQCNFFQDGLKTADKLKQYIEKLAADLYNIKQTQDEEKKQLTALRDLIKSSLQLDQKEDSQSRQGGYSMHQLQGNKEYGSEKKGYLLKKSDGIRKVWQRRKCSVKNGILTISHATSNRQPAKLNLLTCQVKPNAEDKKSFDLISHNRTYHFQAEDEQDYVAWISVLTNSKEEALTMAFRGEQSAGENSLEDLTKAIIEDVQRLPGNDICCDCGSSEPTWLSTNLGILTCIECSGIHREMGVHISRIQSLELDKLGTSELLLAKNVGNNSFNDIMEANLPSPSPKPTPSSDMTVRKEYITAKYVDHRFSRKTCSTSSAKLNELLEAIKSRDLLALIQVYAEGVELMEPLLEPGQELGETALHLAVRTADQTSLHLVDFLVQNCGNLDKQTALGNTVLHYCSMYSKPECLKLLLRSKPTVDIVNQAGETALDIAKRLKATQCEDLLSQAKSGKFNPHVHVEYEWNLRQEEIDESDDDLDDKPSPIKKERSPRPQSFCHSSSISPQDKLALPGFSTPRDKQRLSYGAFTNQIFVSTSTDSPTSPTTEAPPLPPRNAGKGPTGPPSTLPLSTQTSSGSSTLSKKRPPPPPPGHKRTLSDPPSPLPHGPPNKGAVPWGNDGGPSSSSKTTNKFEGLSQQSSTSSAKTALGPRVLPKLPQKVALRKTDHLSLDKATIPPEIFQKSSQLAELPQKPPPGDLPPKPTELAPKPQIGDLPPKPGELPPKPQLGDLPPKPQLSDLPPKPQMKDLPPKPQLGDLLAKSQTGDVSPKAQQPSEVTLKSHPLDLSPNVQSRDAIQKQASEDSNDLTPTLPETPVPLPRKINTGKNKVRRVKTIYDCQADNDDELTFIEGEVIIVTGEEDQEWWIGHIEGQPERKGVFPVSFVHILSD
Chain of ADP-ribosylation factor GTPase-activating protein 1 (Q62848 whole entry, the tested form may be a part): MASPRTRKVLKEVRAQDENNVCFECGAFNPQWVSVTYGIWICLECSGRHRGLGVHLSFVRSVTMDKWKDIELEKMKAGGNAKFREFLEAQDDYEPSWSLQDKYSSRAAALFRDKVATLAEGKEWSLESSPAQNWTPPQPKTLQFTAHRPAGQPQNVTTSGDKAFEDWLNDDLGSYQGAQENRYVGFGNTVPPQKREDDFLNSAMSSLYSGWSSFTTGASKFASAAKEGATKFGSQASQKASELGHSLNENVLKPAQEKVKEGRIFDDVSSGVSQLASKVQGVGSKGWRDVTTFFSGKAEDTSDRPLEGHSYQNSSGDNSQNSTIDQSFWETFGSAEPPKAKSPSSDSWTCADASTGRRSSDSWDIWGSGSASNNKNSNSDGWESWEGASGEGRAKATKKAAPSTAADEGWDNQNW
Chain of 26S proteasome non-ATPase regulatory subunit 14 (O00487 whole entry): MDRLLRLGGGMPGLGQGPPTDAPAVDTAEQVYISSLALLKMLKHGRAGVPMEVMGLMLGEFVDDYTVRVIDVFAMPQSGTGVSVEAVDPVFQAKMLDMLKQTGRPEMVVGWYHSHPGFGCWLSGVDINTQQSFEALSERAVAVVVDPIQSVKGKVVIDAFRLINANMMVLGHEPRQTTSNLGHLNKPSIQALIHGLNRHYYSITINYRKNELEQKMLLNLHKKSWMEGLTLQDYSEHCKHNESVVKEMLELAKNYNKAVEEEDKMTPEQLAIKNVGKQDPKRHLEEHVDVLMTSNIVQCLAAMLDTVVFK
Chain of 72 kDa type IV collagenase (P08253 whole entry): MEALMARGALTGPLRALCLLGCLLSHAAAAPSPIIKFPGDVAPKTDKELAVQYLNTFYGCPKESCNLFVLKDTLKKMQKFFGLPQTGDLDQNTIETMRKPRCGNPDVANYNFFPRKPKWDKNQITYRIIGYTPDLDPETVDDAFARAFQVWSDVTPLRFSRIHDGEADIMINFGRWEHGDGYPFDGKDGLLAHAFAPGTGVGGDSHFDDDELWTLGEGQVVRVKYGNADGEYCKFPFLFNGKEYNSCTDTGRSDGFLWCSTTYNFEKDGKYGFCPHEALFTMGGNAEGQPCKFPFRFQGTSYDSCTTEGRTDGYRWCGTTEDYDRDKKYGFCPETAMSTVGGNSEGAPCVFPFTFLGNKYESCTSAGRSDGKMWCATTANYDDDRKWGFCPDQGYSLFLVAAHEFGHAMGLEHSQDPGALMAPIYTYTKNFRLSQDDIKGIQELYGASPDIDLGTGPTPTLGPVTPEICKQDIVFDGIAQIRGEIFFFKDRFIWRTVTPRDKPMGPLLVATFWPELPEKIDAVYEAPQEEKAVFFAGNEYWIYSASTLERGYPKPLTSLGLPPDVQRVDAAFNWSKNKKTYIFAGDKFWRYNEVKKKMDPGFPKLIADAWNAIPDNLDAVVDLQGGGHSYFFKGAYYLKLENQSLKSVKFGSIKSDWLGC

SMILES: Cc1ccc2nc(SCC(=O)N3CCCCCC3)nc(=O)n2c1
IC50 [1]: 23.1 µM (inactive)
IC50 [2]: 30.7 µM (inactive)
EC50 (cells [3]): > 350 µM (not active)
EC50 (cells [4]): > 350 µM (not active)

SMILES: Nc1nc(SCc2ccc(Cl)cc2Cl)nc2nc3c(cc12)CCCC3
IC50 [5]: 41.4 µM (active)
IC50 [6]: > 100 µM (inactive)
EC50 [7]: 14.4 µM (active)
EC50 [8]: 13.3 µM (active)
IC50 [1]: 23.8 µM (inactive)
IC50 (Prothrombin): 39.2 µM (active)
IC50 [2]: 17.7 µM (inactive)

SMILES: COc1ccccc1NS(=O)(=O)c1cccc(NC(=O)Nc2ccc(Cl)cc2)c1
IC50 [9]: 39.5 µM (inactive)
EC50 (HEK293 [10]): > 20 µM (inactive)
IC50 (HEK293 [11]): 6.59 µM (active)
IC50 [12]: 5.53 µM (active)
EC50 [13]: > 60 µM (not active)
EC50 [14]: 1.8 µM (active)
IC50 (HEK293 [15]): 7.01 µM (active)
IC50 [16]: 65.3 µM (inactive)
IC50 (HEK293 [17]): 5.81 µM (inactive)

IC50 (Beta-galactosidase): > 80 µM (inactive)
SMILES: CCOC(=O)C1CCN(C(=O)c2cc3c(ccc4ccccc43)o2)CC1
